Results: US4426453A, “Derivatives of iodothyronine compounds and their use in an assay for the free iodothyronine compounds” (Amersham International Limited, priority 1980, dated 1984)
“Also recorded” adds a separate entry of the source.

Legend:
[1] = Stability in water / assay buffer; format: physicochemical; details: qualitative
[2] = target: T1, TBG (Homo sapiens, UniProt P05543); assay: T4.EDTA binding strength to TBG relative to T4 (displacement of 125I-T4 tracer from TBG:anti-TBG binding reagent); parameters: 1 ml of resin stripped human serum; from tissue; host or cells: human serum (resin stripped); details: for binding to TBG (in words): qualitative
T1 sequence (P05543 21-415): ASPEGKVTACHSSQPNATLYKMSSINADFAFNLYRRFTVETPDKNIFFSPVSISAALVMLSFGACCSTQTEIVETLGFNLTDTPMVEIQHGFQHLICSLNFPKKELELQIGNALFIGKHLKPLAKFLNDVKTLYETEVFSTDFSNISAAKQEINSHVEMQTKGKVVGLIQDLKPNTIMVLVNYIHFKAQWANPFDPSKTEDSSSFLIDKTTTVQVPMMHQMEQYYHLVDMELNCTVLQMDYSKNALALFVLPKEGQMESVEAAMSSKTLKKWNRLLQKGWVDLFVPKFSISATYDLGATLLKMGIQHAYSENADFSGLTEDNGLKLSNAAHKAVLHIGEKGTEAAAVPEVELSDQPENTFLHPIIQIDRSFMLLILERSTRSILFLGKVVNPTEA
Protocol: (§1) Pre-precipitated antiserum (binding reagent) to either TBG or prealbumin is incubated with a serum source of TBG or prealbumin, so that the T4 binding protein is isolated on the binding reagent. Tracer ^125 I-T4 is added to the resulting complex and is thus purified. The displacement of the tracer ^125 I-T4, by varying concentrations of T4 and T4.EDTA, from the TBG or prealbumin, can then be studied. The results can be used to estimate the differences in binding affinity between T4 and T4.EDTA for the two T4 binding proteins.
15% Donkey anti-sheep in phosphate
2% TBG Antiserum buffer + 0.05% BSA
Equal quantities of the above solutions are mixed and rotated overnight at 4° so that the final concentrations in the binding reagent are 7.5% donkey anti-sheep, and 1% TBG antiserum. Centrifugation at 900 rpm, decantation and resuspension in fresh buffer are carried out twice to wash the reagent.
1 ml of resin stripped human serum and 20 ml of the above binding reagents are mixed for 1 hour at room temperature. Centrifugation, decantation and resuspension in fresh buffer (phosphate+0.05% BSA) are carried out twice.
Typically 10 ml of TBG:anti-TBG binding reagents, 28 ml of phosphate buffer+0.05% BSA, and 2 ml of ^125 I-T4 tracer solution (0.1 μCi high specific activity T4 per ml in phosphate buffer+0.05% BSA) are mixed for 1 hour at room temperature. Centrifugation, decantation and resuspension in fresh buffer (phosphate+0.05% BSA) are carried out twice. Once prepared the tracer T4:TBG:anti-TBG binding reagent is used immediately.
The stock solutions are diluted in phosphate buffer+0.005% BSA. […]
(§2) Thus the percentage bound of the tracer at different T4 and T4.EDTA concentrations, can be determined in the two systems.
(§3) Tracer percentage bound is plotted against T4 and T4.EDTA concentrations, and from these curves an estimate of the non-specific binding can be made. The data can then be re-calculated, using this blank correction, plotted, and the T4 and T4.EDTA concentrations corresponding to a range of tracer percentage bound values can be read off the curve. […]

[3] = system: Antisera (having low T4 cross reactivity); assay: Binding to antisera having low T4 cross reactivity; details: antisera with low T4 cross reactivity; compared with T3
[4] = system: Albumin; details: blood stream of human beings; cited from earlier work
[5] = system: TBPA; details: blood stream of human beings; cited from earlier work
[6] = target: T1, TBG; details: blood stream of human beings; cited from earlier work
[7] = target: T2, TBPA (prealbumin) (Homo sapiens, UniProt P02766); assay: T4.EDTA binding strength to prealbumin (TBPA) relative to T4 (displacement of 125I-T4 tracer from TBPA:anti-TBPA binding reagent)
T2 construct: from tissue; host or cells: normal serum
Protocol: as §1
This is prepared as for the anti-TBG binding reagent except that equal volumes of 30% donkey anti-rabbit second antibody and 4% TBPA antiserum solutions were mixed to give final concentrations of 15% donkey anti-rabbit, and 2% anti-TBPA.
600 μl normal serum and 20 ml anti-TBPA binding reagent are mixed for 1 hour at room temperature. […]
as §2, §3

[8] = system: T4 antiserum; assay: Affinity with respect to T4 antiserum; format: binding
[9] = system: solid phase T4 antibody (T4-specific antiserum on latex particles); assay: Free-T4 assay using T4.EDTA tracer: standard curve; format: binding; details: 37° C., one hour
From the text: T4.EDTA was labelled with ^125 I by an exchange reaction using sodium iodide-^125 I and chloramine-T. The specific activity obtained was typically 500 millicuries per milligram, and was used as a working concentration of 0.13 microcuries per […] in a 60 millimolar phosphate buffer, pH 7.4, containing 0.9% sodium chloride, 0.9% bovine serum albumin and 0.1% sodium azide.
A solid phase antibody was used consisting of T4-specific antiserum bound on to micron sized latex particles such that the suspension contained 0.66 milligram of latex particles per milliliter and antibodies from 0.5 microliters of T4-specific antiserum per milligram of latex. The buffer was 10 millimolar phosphate, pH 7.4 containing 0.1% sodium azide.
A set of 6 human serum pools were prepared by standard techniques to contain free-T4 concentrations ranging from zero to approximately 10 nanograms per deciliter. These standards were calibrated with reference to an equilibrium dialysis free T4 assay.
The free T4 assay was set up in polystyrene assay tubes following this protocol:
100 μl serum standard or unknown serum sample
500 μl ^125 I-T4.EDTA tracer solution.
500 μl solid phase T4 antibody suspension.
The assay tubes were vortex mixed, and incubated at 37° C. in a water bath for one hour. The tubes were centrifuged at 1500 g for 20 minutes and the supernatant liquid decanted. The readioactivity of the precipitate was measured.

[10] = % of the affinity constant of T4, 37° C.

## COC(=O)[C@H](Cc1cc(I)c(Oc2cc(I)c(O)c(I)c2)c(I)c1)NC(C)=O [N-Acetyl-thyroxine-methyl ester, N-acetyl-thyroxine-methyl ester, reference compound]
[1]
  stability in water / usable time after dilution into the assay buffer: only gives useful assay results within hours of dilution into the assay buffer
[2]
  binding to TBG (in words): binds appreciably to TBG

## O=C(O)CN(CCN(CC(=O)O)CC(=O)NC(Cc1cc(I)c(Oc2ccc(O)c(I)c2)c(I)c1)C(=O)O)CC(=O)O (stereo not shown) [T3.EDTA, 2-carboxy-6,9-dicarboxymethyl-1 3',5'di-iodo-4'(3"-iodo-4"-hydroxy)phenoxy phenyl 4-oxo-3,6,9-triazaundecan-11-oic acid]
[3]
  binding to antisera relative to T3: equal, or better, binding than T3 itself

## N[C@@H](Cc1cc(I)c(Oc2cc(I)c(O)c(I)c2)c(I)c1)C(=O)O [T4, Thyroxine]
[4]
  percentage of T4 bound to Albumin: 5-10%
[5]
  percentage of T4 bound to TBPA: 20-25%
[6]
  percentage of T4 bound to TBG: approximately 70%

## O=C(O)CN(CCN(CC(=O)O)CC(=O)NC(Cc1cc(I)c(Oc2cc(I)c(O)c(I)c2)c(I)c1)C(=O)O)CC(=O)O (stereo not shown) [T4.EDTA, 1-{3',5'-di-iodo-4'(3",5"-di-iodo-4"-Hydroxyphenoxy)phenyl}2-carboxy-6,9-dicarboxymethyl-4-oxo-3,6,9-triazaundecan-11-oic acid]
[1]
  stability in water / usable time after dilution into the assay buffer: stable in water
[7]; [10]
  affinity constant for TBPA relative to that of T4: 2.7%
[7]; qualitative
  binding to TBPA (in words): binds only very weakly to TBG and TBPA
[8]; % of that of T4
  affinity constant with respect to T4 antiserum relative to that of T4: 90.4%
[8]; relative to T4
  binding to T4 antiserum (in words): binds almost as strongly to T4 antiserum as does T4 itself
[2]; [10]
  affinity constant for TBG relative to that of T4: 3.5%
[2]
  binding to TBG (in words): binds only very weakly to TBG; also recorded: shows no significant tendency to bind to TBG

## O=C(O)CN(CCN(CC(=O)O)CC(=O)NC(Cc1cc(I)c(Oc2cc(I)c(O)c(I)c2)c(I)c1)C(=O)O)CC(=O)O (stereo not shown) [^125 I-T4.EDTA]
[9]; free T4 0 ng/dl
  % radioactivity in solid phase: 61.8%
[9]; free T4 0.45 ng/dl
  % radioactivity in solid phase: 41.2%
[9]; free T4 0.95 ng/dl
  % radioactivity in solid phase: 30.8%
[9]; free T4 1.9 ng/dl
  % radioactivity in solid phase: 21.1%
[9]; free T4 4.9 ng/dl
  % radioactivity in solid phase: 12.4%
[9]; free T4 9.0 ng/dl
  % radioactivity in solid phase: 9.3%
